Test results as given in patent US20250255850A1, “PHARMACEUTICAL COMPOSITIONS FOR TREATING NEUROLOGICAL CONDITIONS” (YISSUM RESEARCH DEVELOPMENT COMPANY OF THE HEBREW …, priority 2021, published 2025).
In brackets after ≈: the same amount, converted by molar mass.

Legend:
nNOS = target: T1, nNOS (Homo sapiens, UniProt P29475); assay: NADPH-diaphorase activity assay in SH-SY5Y cell lysates; format: cell-based; conditions: 7-NI 100 μM 24 hours or 20 nM nNOS siRNA 24 hours
T1 construct: SH-SY5Y cells grown in six-well culture plates were lysed in 50 mM Tris-HCl buffer (pH 7.4); endogenous in cells; host or cells: SH-SY5Y (human neuroblastoma, ATCC)
T1 sequence (P29475 whole entry): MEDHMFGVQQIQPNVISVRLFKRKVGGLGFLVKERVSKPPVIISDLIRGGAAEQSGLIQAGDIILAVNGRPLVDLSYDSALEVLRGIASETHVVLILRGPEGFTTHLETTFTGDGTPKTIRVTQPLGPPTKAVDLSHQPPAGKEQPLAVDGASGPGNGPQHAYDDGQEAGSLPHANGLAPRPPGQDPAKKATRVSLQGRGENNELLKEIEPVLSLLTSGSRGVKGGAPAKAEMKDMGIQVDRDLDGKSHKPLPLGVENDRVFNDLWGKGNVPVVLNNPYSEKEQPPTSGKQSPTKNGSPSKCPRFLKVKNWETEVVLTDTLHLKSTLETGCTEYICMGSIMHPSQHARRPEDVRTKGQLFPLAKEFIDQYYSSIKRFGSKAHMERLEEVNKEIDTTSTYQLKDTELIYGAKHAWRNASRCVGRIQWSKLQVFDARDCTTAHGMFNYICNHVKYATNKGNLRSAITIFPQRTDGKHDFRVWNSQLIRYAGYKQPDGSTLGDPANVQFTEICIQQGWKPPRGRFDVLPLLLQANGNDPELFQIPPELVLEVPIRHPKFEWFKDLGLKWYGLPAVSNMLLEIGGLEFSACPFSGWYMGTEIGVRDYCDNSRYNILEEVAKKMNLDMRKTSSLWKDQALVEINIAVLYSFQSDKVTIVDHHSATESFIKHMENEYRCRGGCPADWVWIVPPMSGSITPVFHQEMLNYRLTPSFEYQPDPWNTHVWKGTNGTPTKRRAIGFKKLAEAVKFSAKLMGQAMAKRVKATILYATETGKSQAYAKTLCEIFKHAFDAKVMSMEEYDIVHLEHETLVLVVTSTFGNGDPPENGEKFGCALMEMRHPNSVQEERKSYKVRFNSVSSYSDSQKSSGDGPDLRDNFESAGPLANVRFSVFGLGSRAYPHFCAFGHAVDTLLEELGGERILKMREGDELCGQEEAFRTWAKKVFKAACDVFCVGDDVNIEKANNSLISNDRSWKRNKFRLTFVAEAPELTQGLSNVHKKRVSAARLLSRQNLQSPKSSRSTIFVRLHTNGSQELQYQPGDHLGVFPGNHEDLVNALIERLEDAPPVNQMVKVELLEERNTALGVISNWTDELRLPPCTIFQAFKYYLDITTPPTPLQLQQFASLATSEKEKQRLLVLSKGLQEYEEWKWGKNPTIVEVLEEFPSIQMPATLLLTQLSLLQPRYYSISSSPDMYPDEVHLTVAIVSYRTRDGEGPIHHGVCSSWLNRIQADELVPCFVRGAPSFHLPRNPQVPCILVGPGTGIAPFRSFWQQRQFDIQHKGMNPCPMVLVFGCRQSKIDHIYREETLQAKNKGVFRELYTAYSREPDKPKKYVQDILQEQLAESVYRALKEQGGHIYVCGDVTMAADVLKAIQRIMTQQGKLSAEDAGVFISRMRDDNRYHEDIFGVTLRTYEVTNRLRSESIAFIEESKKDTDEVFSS
Experimental: Human NB SH-SY5Y cells were obtained from the American Type Culture Collection (ATCC) and maintained in Dulbecco's modified Eagle's medium (DMEM) and Ham's F-12 (1:1) supplemented with 10% fetal bovine serum, 2 mM L-glutamine, and 100 U/ml penicillin-G/100 […] streptomycin in a humidified atmosphere (37° C., 5% CO2). Cells were plated onto 25 cm^2 and 75 cm^2 plates at a density of 7.0×10^5 and 2.1×10^6 cells/cm^2 respectively for Western blotting (WB) and 1×10^5 for immunofluorescence. The SH-SY5Y cells were treated with 100 μM 7-nitroindazole (7-NI) for 24 hours (Fujibayashi et al., 2015). This concentration was confirmed in a dose-response experiment (FIG. 14A) using an MTT viability assay. […]
The NADPH-diaphorase activity assay was used to determine the NOS activity based on the NADPH-dependent reduction of nitro-blue tetrazolium salt (NBT) to visible formazan (Amaroli and Chessa, 2012; Seckler et al., 2020). […] After a 15 min incubation period at 37° C., the production of formazan was measured spectrophotometrically at 585 nm. The data were expressed as absorbance units and normalized for the protein content of each sample. Protein concentration was measured by the bicinchoninic acid (BCA) protein assay using BSA as a standard (Ortiz-Ortiz et al., 2009). Released NO was measured using a Griess Assay Kit (Beyotime, Shanghai, China) according to the manufacturer's instructions.

[1] = system: Mutant mice (CNTNAP2 and SHANK3 mouse models); assay: Sociability test, 7-NI-treated mutant mice (Example 3); format: in vivo; conditions: 7-NI IP 80 mg/kg/day for 7 days; mutant mice vs vehicle
Experimental: (§1) Behavioral testing started after 2 hours of treatment.
Three-chambered sociability test (see, FIG. 4B): Sociability and preference for social novelty and social recognition were tested in a three-chambered apparatus. The subjected mouse was first placed in the central, neutral chamber and allowed to explore for 10 minutes with all the doors closed. Next, doors were opened and the mouse was allowed to freely explore the other two empty chambers (1 and 2) for an additional 10 minutes. Lack of side preference was confirmed during this habituation.
Two cylindrical wire cages were placed, one in chamber 1 and the other in chamber 2. For the sociability test, the test animal was introduced to the middle chamber and allowed to adjust for 5 minutes. Then, an unfamiliar mouse was introduced into a wire cage in one of the side-chambers, and the other side-chamber remained empty. The time spent by the test mouse exploring the wire cage with an unfamiliar mouse inside was recorded for 5 minutes.
7-nitroindazole (7-NI) is a selective inhibitor of neuronal nitric oxide synthase. Mutant mice were administered with 7-NI […] (IP), 80 mg/kg/day for 7 days, as described hereinabove. […]

SH-SY5Y cells = assay: Clonogenic survival assay; format: cell-based, human; conditions: 7-NI 100 μM for 24 hours or siRNA-nNOS, 14 days
Experimental: Cells were seeded into 6-well plates at concentrations of 500/well or 1000/well in triplicates. After 24 hours, 7-NI was added (100 μM for 24 hours), or cells were transiently transfected with siRNA-nNOS, as described above, before changing to serum-containing medium. Cells were incubated for 14 days to form visible colonies. Colonies were stained with crystal violet, washed with PBS, air-dried, and imaged. The colonies were visualized using ImageJ software. Cell colonies of greater than 50 cells were identified and counted (Lopez-Rivera et al., 2014).

[2] = system: Mutant mice (CNTNAP2 and SHANK3 mouse models); assay: Novel object recognition test (NOR), 7-NI-treated mutant mice (Example 3); format: in vivo; conditions: 7-NI IP 80 mg/kg/day for 7 days; mutant mice vs vehicle
Experimental: as §1
Novel object recognition (see, FIG. 4A): The novel object test for object recognition and memory takes place in a white open field arena (45×45 cm). The test involves a set of two unique novel objects, each about the size of a mouse, constructed from two different materials and non-uniform in shape. The test consisted of one 10-minute habituation session, a 5-minute familiarization session and a 5-minute recognition test, each video tracked (Noldus Ethovision). During the habituation, animals were allowed to freely explore an empty open field. At the end of the session, they were shifted from the open field to a place in a temporary clean holding cage for about 2 minutes. Two identical objects were placed on the median line at 10 cm from each wall and the animal was returned to the open field and allowed to explore the objects for 5 minutes before being returned to its home cage. Next day, one familiar object and one novel object were placed in the open field to the location where the identical objects were placed during the familiarization session and the mouse was allowed to explore them for a 5-minute recognition test. […] Familiarization and recognition sessions were scored for total time spent investigating each object, the number of object interactions and the latency of the first object interaction. […]

physchem = conditions: organic solvent or mixture
neuronal NOS = neuronal NOS (Homo sapiens, UniProt P29475); conditions: Pharm Res., 2001, 18, 1607-1612; cited from earlier work
Chain of neuronal NOS (P29475 whole entry, species assumed): as the sequence (P29475 whole entry) above

[3] = Solubility of 7-nitroindazole in PNL formulation of Table 1; format: physicochemical; conditions: PNL formulation of Table 1, clear liquid
Source text: Table 1 below presents an exemplary PNL formulation according to some embodiments of the present invention.
The formulation can be prepared by mixing the components at room or elevated temperature to form a clear liquid which 7-nitroindazole is soluble in at about 20% w/v.

NADPH diaphorase activity (nNOS): significantly inhibited
solubility (physchem): 32 mg/mL (≈ 196 mM)
solubility in PNL formulation [3]: about 20 % w/v
Compound: O=[N+]([O-])c1cccc2cn[nH]c12 [7-NI, 7-nitroindazole]
time interacting with the stranger cage (sociability test) [1]: spent significantly more time interacting with the stranger cage
number of colonies (clonogenic survival) (SH-SY5Y cells): decrease in the number of colonies
preference for the novel object (NOR test) [2]: exhibited a significant preference for the novel object over the familiar object
selectivity for neuronal NOS (neuronal NOS): 10 fold
